pIC50: −log10 of the molar value. Structures can show the parent of a compound that is named as a salt.

Usually pIC50 stands for −log10 of the IC50, conventionally taken in molar units.

One assay deals with BRD4-BD1 (Homo sapiens (Human), UniProt O60885). Briefly: BRD4 AlphaScreen assay, BRD4-BD1. The following applies: biotin-labeled tetra-acetylated histone H4 peptide, 75 min, room temperature, read-out: BRD4 BD-1 enzyme IC50. The assay is classed as binding. Summed up: (§1)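 IC50 values from percent-control versus log inhibitor fits after bead-based proximity readout (streptavidin donor, GSH acceptor, 75 min dark). Reactions: 75 min RT, pH 7.4 HEPES, biotin-H4Ac4 peptide 50 nM, with BD1 at 3.8 nM (DMSO 1.25%) and BD2 at 20 nM (DMSO 0.83%).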
(In general: Bead proximity is the source of the signal in Alpha formats.)

In another assay the target is BRD4-BD2 (Homo sapiens (Human), UniProt O60885). Briefly: BRD4 AlphaScreen assay, BRD4-BD2. The following applies: biotin-labeled tetra-acetylated histone H4 peptide, 75 min, room temperature, read-out: BRD4 BD-2 enzyme IC50. It is filed as binding. Summed up: as §1

For the compound `CNC(=O)c1cc2c(ccc3nnc(C)n32)n1Cc1cccc(C(F)(F)F)c1` [Example 136, N,1-dimethyl-6-[3-(trifluoromethyl)benzyl]-6H-pyrrolo[2,3-e][1,2,4]triazolo[4,3-a]pyridine-7-carboxamide Trifluoroacetate Salt], the pIC50 on BRD4-BD1 and on BRD4-BD2 was at least 7.00 in each case.
Take `CCNC(=O)c1cc2c(ccc3nnc(C)n32)n1Cc1cccc(C(F)(F)F)c1` [Example 137, N-Ethyl-1-methyl-6-[3-(trifluoromethyl)benzyl]-6H-pyrrolo[2,3-e][1,2,4]triazolo[4,3-a]pyridine-7-carboxamide Trifluoroacetate Salt]: the pIC50 on BRD4-BD1 and on BRD4-BD2 was at least 7.00 in each case.
With `Cc1nnc2ccc3c(cc(C(F)(F)F)n3Cc3ccccc3)n12` [Example 138, 6-Benzyl-1-methyl-7-(trifluoromethyl)-6H-pyrrolo[2,3-e][1,2,4]triazolo[4,3-a]pyridine Trifluoroacetate Salt], the pIC50 at BRD4-BD1 and at BRD4-BD2 was 6.00 to 7.00 throughout.
Turning to `CNC(=O)Nc1cc2c(cc(C)n2Cc2cc(Cl)cc(CN3CCCC3)c2)n2c(C)nnc12` [Example 142, N-{6-[3-Chloro-5-(pyrrolidin-1-ylmethyl)benzyl]-1,7-dimethyl-6H-pyrrolo[2,3-e][1,2,4]triazolo[4,3-a]pyridin-4-yl}-N′-methylurea bis(trifluoroacetate) Salt], the pIC50 at BRD4-BD1 and on BRD4-BD2 was at least 7.00 each time.
Turning to `Cc1nnc2ccc3c(cc(-c4ncco4)n3Cc3ccccc3)n12` [Example 143, 6-benzyl-1-methyl-7-(1,3-oxazol-2-yl)-6H-pyrrolo[2,3-e][1,2,4]triazolo[4,3-a]pyridine Trifluoroacetate Salt], the pIC50 on BRD4-BD1 and at BRD4-BD2 was at least 7.00 in each case.
Consider `Cc1cc2c(cc(NC3CCOCC3)c3nnc(C)n32)n1Cc1ccccc1` [Example 146, 6-benzyl-1,7-dimethyl-N-(tetrahydro-2H-pyran-4-yl)-6H-pyrrolo[2,3-e][1,2,4]triazolo[4,3-a]pyridin-4-amine], for which the pIC50 on BRD4-BD1 and at BRD4-BD2 was at least 7.00 in each case.
Take `Cc1cc2c(cc(N[C@@H]3CCOC3)c3nnc(C)n32)n1Cc1ccccc1` [Example 147, 6-benzyl-1,7-dimethyl-N-[(3R)-tetrahydrofuran-3-yl]-6H-pyrrolo[2,3-e][1,2,4]triazolo[4,3-a]pyridin-4-amine]: the pIC50 on BRD4-BD1 and on BRD4-BD2 was at least 7.00 each time.
For `Cc1cc2c(cc(N[C@H]3CCOC3)c3nnc(C)n32)n1Cc1ccccc1` [Example 148, 6-benzyl-1,7-dimethyl-N-[(3S)-tetrahydrofuran-3-yl]-6H-pyrrolo[2,3-e][1,2,4]triazolo[4,3-a]pyridin-4-amine], the pIC50 on BRD4-BD1 and on BRD4-BD2 was at least 7.00 in each case.
For the compound `Cc1cc2c(cc(N[C@@H]3CCN(C(=O)OC(C)(C)C)C3)c3nnc(C)n32)n1Cc1ccccc1` [Example 149, tert-butyl (3R)-3-[(6-benzyl-1,7-dimethyl-6H-pyrrolo[2,3-e][1,2,4]triazolo[4,3-a]pyridin-4-yl)amino]pyrrolidine-1-carboxylate], the pIC50 at BRD4-BD1 is 6.00 to 7.00; at BRD4-BD2, at least 7.00.
Turning to `Cc1cc2c(cc(N[C@H]3CCN(C(=O)OC(C)(C)C)C3)c3nnc(C)n32)n1Cc1ccccc1` [Example 150, tert-butyl (3S)-3-[(6-benzyl-1,7-dimethyl-6H-pyrrolo[2,3-e][1,2,4]triazolo[4,3-a]pyridin-4-yl)amino]pyrrolidine-1-carboxylate], the pIC50 at BRD4-BD1 and on BRD4-BD2 was at least 7.00 each time.
For `Cc1cc2c(cc(N[C@@H]3CCNC3)c3nnc(C)n32)n1Cc1ccccc1` [Example 151, 6-benzyl-1,7-dimethyl-N-[(3R)-pyrrolidin-3-yl]-6H-pyrrolo[2,3-e][1,2,4]triazolo[4,3-a]pyridin-4-amine bis(trifluoroacetate) Salt], the pIC50 on BRD4-BD1 and at BRD4-BD2 was at least 7.00 throughout.
In the case of `Cc1cc2c(cc(N[C@H]3CCNC3)c3nnc(C)n32)n1Cc1ccccc1` [Example 152, 6-benzyl-1,7-dimethyl-N-[(3S)-pyrrolidin-3-yl]-6H-pyrrolo[2,3-e][1,2,4]triazolo[4,3-a]pyridin-4-amine bis(trifluoroacetate) Salt], the pIC50 on BRD4-BD1 and on BRD4-BD2 was at least 7.00 each time.
Regarding `Cc1cc2c(cc(NC3CCN(C)CC3)c3nnc(C)n32)n1Cc1ccccn1` [Example 153, 1,7-dimethyl-N-(1-methylpiperidin-4-yl)-6-(pyridin-2-ylmethyl)-6H-pyrrolo[2,3-e][1,2,4]triazolo[4,3-a]pyridin-4-amine], the pIC50 on BRD4-BD1 and on BRD4-BD2 was at least 7.00 throughout.
In the case of `Cc1cc2c(cc(NC3CCN(C)CC3)c3nnc(C)n32)n1Cc1cccnc1` [Example 154, 1,7-dimethyl-N-(1-methylpiperidin-4-yl)-6-(pyridin-3-ylmethyl)-6H-pyrrolo[2,3-e][1,2,4]triazolo[4,3-a]pyridin-4-amine], the pIC50 at BRD4-BD1 and on BRD4-BD2 was at least 7.00 in each case.
In the case of `Cc1nnc2ccc3c(cc(-c4ccn[nH]4)n3Cc3cccc(Cl)c3)n12` [Example 155, 6-(3-chlorobenzyl)-1-methyl-7-(1H-pyrazol-5-yl)-6H-pyrrolo[2,3-e][1,2,4]triazolo[4,3-a]pyridine bis(trifluoroacetate) Salt], the negative logarithm of the IC50 (pIC50) on BRD4-BD1 and at BRD4-BD2 was at least 7.00 in each case.
As for `CCN1CC(CC#N)(n2ccc(-c3cc4c(ccc5nnc(C)n54)n3Cc3cccc(Cl)c3)n2)C1` [Example 158, (3-{3-[6-(3-Chlorobenzyl)-1-methyl-6H-pyrrolo[2,3-e][1,2,4]triazolo[4,3-a]pyridin-7-yl]-1H-pyrazol-1-yl}-1-ethylazetidin-3-yl)acetonitrile bis(trifluoroacetate) Salt], the pIC50 on BRD4-BD1 and on BRD4-BD2 was at least 7.00 throughout.
`CCN1CC(n2ccc(-c3cc4c(ccc5nnc(C)n54)n3Cc3cccc(Cl)c3)n2)C1` [Example 160, 6-(3-Chlorobenzyl)-7-[1-(1-ethylazetidin-3-yl)-1H-pyrazol-3-yl]-1-methyl-6H-pyrrolo[2,3-e][1,2,4]triazolo[4,3-a]pyridine bis(trifluoroacetate) Salt]: the pIC50 on BRD4-BD1 and at BRD4-BD2 was at least 7.00 throughout.
For `Cc1nnc2ccc3c(cc(-c4ccn(C5CN(S(=O)(=O)N(C)C)C5)n4)n3Cc3cccc(Cl)c3)n12` [Example 161, 3-{3-[6-(3-Chlorobenzyl)-1-methyl-6H-pyrrolo[2,3-e][1,2,4]triazolo[4,3-a]pyridin-7-yl]-1H-pyrazol-1-yl}-N,N-dimethylazetidine-1-sulfonamide bis(trifluoroacetate) Salt], the pIC50 on BRD4-BD1 and at BRD4-BD2 was at least 7.00 throughout.
On to `Cc1nnc2ccc3c(cc(-c4ccn(C5CN(C(=O)CN(C)C)C5)n4)n3Cc3cccc(Cl)c3)n12` [Example 162, 2-(3-{3-[6-(3-Chlorobenzyl)-1-methyl-6H-pyrrolo[2,3-e][1,2,4]triazolo[4,3-a]pyridin-7-yl]-1H-pyrazol-1-yl}azetidin-1-yl)-N,N-dimethyl-2-oxoethanamine bis(trifluoroacetate) Salt], for which the pIC50 at BRD4-BD1 and on BRD4-BD2 was at least 7.00 each time.

Values taken from patent US9777003B2, “Tricyclic heterocycles as bet protein inhibitors” (Incyte Corporation, priority 2013, dated 2017).
